Test results reported in PMC9416487, “Comprehensive Evaluation of the Quality of Tripterygium Glycosides Tablets Based on Multi-Component Quantification Combined with an In Vitro Biological Assay” (Molecules, 2022).

Key:
[1] = system: NO production in LPS-induced RAW 264.7 cells; assay: Inhibitory effect on NO production in LPS-induced RAW 264.7 cells (Griess reagent); type: cell-based; conditions: for IC50: Mus musculus, RAW264.7; for IC50 / NO Inhibitory Effect IC50: investigated compounds, LPS (1 µg/mL)-induced RAW 264.7 cells, 24 h
Description: The culture medium was replaced with DMEM medium containing various concentrations of TGT or target compound, subsequently treated with LPS (1 µg/mL), and then incubated for 24 h. After 50 µL of cultured medium was transferred to a new 96-well plate, 50 µL of Griess reagent was added to each well. The absorbance at 540 nm was determined using a microplate reader (PerkinElmer, Waltham, MA, USA). The concentration of NO in the culture supernatants was calculated by using a standard curve of nitrite, a major stable product of NO, which was generated according to the application instructions for the Griess reagent.

RAW 264.7 cells = assay: Cytotoxicity against RAW 264.7 cells (CCK-8 method); conditions: for Cytotoxicity TC50 / Therapeutic Index (TI, = TC50/IC50): investigated compounds; for Cytotoxicity TC50: 24 h, CCK-8
Description: Cells were cultured at 37 °C in a humidified air incubator with 5% CO2 in Dulbecco’s modified Eagle’s medium (DMEM; Gibco, Grand Island, NY, USA) supplemented with 10% fetal bovine serum (FBS; Gibco, USA), 100 units/mL penicillin and 100 µg/mL streptomycin (Gibco, USA).
RAW 264.7 cells (5.0 × 10^4 cells/well) were seeded into a 96-well plate. After overnight incubation, various concentrations of TGT or target compound were applied to the cells, which were then incubated for 24 h. The same volume of DMSO was added to the compound-untreated group to account for any effects of DMSO on cell viability. Then, the culture medium was removed, 100 μL DMEM medium plus 10 μL CCK-8 reagent (MCE, Suzhou, China) was added, and the cells were incubated for another 2 h at 37 °C in a 5% CO2 incubator. Absorbance at 450 nm was read using a microplate reader, and cell viability was calculated as the percentage of absorbance of various concentrations versus the control group.

[2] = parameters: method as in PMID 29787994; conditions: reported in the literature ref [20]; cited from earlier work

SMILES | IC50 [1] [µM] | Cytotoxicity TC50 (RAW 264.7 cells) | other results
CC(=O)OC[C@]12[C@H](OC(C)=O)[C@H](OC(C)=O)[C@@H]3[C@@H](OC(C)=O)[C@@]14O[C@@]3(C)COC(=O)c1cccnc1CCC(C)(O)C(=O)O[C@@H]([C@H](OC(=O)c1ccco1)[C@@H]2OC(C)=O)[C@]4(C)O (stereo partly shown) [wilfortrine] | > 50 | nu (Had no NO inhibitory effect or cytotoxicity with an NO production rate less than 0 or cell viability more than 100% at a concentration of 50 μM) | –
CC(=O)OC[C@]12[C@H](OC(C)=O)[C@H](OC(C)=O)[C@@H]3[C@@H](OC(C)=O)[C@@]14O[C@@]3(C)COC(=O)c1cccnc1CCC(C)C(=O)O[C@@H]([C@H](OC(=O)c1ccco1)[C@@H]2OC(C)=O)[C@]4(C)O (stereo partly shown) [wilforgine] | – | w (had weak NO inhibitory effect or cytotoxicity with an NO production rate less than 50% or the cell viability more than 50% at a concentration of 50 μM) | NO Inhibitory Effect IC50 [1]: w (had weak NO inhibitory effect or cytotoxicity with an NO production rate less than 50% or the cell viability more than 50% at a concentration of 50 μM)
CC(C)c1ccc2c(c1O)CC[C@H]1C3=C(CC[C@]21C)C(=O)OC3 [triptophenolide] | 43.1 | – | –
CC(=O)OCC12C(OC(C)=O)C(OC(C)=O)C3C(O)C14OC3(C)COC(=O)c1cccnc1C(C)C(C)C(=O)OC(C(OC(C)=O)C2OC(C)=O)C4(C)O (stereo not shown) [neoeunymine] | > 50 | nu (Had no NO inhibitory effect or cytotoxicity with an NO production rate less than 0 or cell viability more than 100% at a concentration of 50 μM) | –
CC(=O)OC[C@]12[C@H](OC(C)=O)[C@H](OC(C)=O)[C@@H]3[C@@H](OC(C)=O)[C@@]14O[C@@]3(C)COC(=O)c1cccnc1C(C)C(C)C(=O)O[C@@H]([C@H](OC(C)=O)[C@@H]2OC(C)=O)[C@]4(C)O (stereo partly shown) [euonymine] | > 50 | nu (Had no NO inhibitory effect or cytotoxicity with an NO production rate less than 0 or cell viability more than 100% at a concentration of 50 μM) | –
CC(C)[C@]12O[C@H]1[C@@H]1O[C@]13[C@]1(O[C@H]1C[C@H]1C4=C(CC[C@@]13C)C(=O)OC4)[C@@H]2O [triptolide] | 0.066 | 0.071 µM | Therapeutic Index (TI, = TC50/IC50) (RAW 264.7 cells): 1.08
CC1=C(O)C(=O)C=C2C1=CC=C1[C@@]2(C)CC[C@@]2(C)[C@@H]3C[C@](C)(C(=O)O)CC[C@]3(C)CC[C@]12C [celastrol] | 0.56 | 1.72 µM | Therapeutic Index (TI, = TC50/IC50) (RAW 264.7 cells): 3.07
CC(=O)OCC12C(OC(C)=O)C(OC(C)=O)C3C(OC(C)=O)C14OC3(C)COC(=O)c1cccnc1CCC(C)(OC(=O)c1ccccc1)C(=O)OC(C(OC(C)=O)C2OC(C)=O)C4(C)O (stereo not shown) [wilfornine A] | – | w (had weak NO inhibitory effect or cytotoxicity with an NO production rate less than 50% or the cell viability more than 50% at a concentration of 50 μM) | NO Inhibitory Effect IC50 [1]: w (had weak NO inhibitory effect or cytotoxicity with an NO production rate less than 50% or the cell viability more than 50% at a concentration of 50 μM)
CC(=O)OCC12C(OC(C)=O)C(OC(C)=O)C3C(OC(C)=O)C14OC3(C)COC(=O)c1cnccc1C(C)C(C)C(=O)OC(C(OC(C)=O)C2OC(C)=O)C4(C)O (stereo not shown) [peritassine A] | > 50 | nu (Had no NO inhibitory effect or cytotoxicity with an NO production rate less than 0 or cell viability more than 100% at a concentration of 50 μM) | –
CC(C)C1=CC(=O)C2=C(CC[C@H]3[C@@](C)(CO)C(=O)CC[C@]23C)C1=O [triptoquinone B] | 35.6 | 0.11 µM | Therapeutic Index (TI, = TC50/IC50) (RAW 264.7 cells): 0.0031
CC1(C)[C@@H](O)CC[C@]2(C)[C@H]3CC=C4[C@@H]5C[C@@]6(C)C[C@H](OC6=O)[C@]5(C)CC[C@@]4(C)[C@]3(C)CC[C@@H]12 [wilforlide A] | > 50 | nu (Had no NO inhibitory effect or cytotoxicity with an NO production rate less than 0 or cell viability more than 100% at a concentration of 50 μM) | NO inhibitory effect / anti-inflammatory activity, in words ([1]; LPS-induced RAW 264.7 cells, up to 50 μM): negligible anti-inflammatory activity; oral bioavailability [2]: extremely low; cytotoxicity / influence on cell viability, in words (RAW 264.7 cells; up to 50 μM): negligible
C[C@@]1(C(=O)O)CC[C@]2(C)CC[C@]3(C)C4=CC(=O)c5c(cc(O)c(O)c5C=O)[C@]4(C)CC[C@@]3(C)[C@@H]2C1 [demethylzeylasteral] | 3.48 | 27.59 µM | Therapeutic Index (TI, = TC50/IC50) (RAW 264.7 cells): 7.93
CC(=O)OC[C@]12[C@H](OC(C)=O)[C@H](OC(C)=O)[C@@H]3[C@@H](OC(C)=O)[C@@]14O[C@@]3(C)COC(=O)c1cccnc1CCC(C)C(=O)O[C@@H]([C@H](OC(=O)c1ccccc1)[C@@H]2OC(C)=O)[C@]4(C)O (stereo partly shown) [wilforine] | – | w (had weak NO inhibitory effect or cytotoxicity with an NO production rate less than 50% or the cell viability more than 50% at a concentration of 50 μM) | NO Inhibitory Effect IC50 [1]: w (had weak NO inhibitory effect or cytotoxicity with an NO production rate less than 50% or the cell viability more than 50% at a concentration of 50 μM)
C[C@@]1(O)C[C@@]23CC[C@H]4[C@@]5(CCC[C@]4(C)C(=O)OC5)[C@@H]2CC[C@H]1C3 [tripterifordin] | > 50 | w ^b (had weak NO inhibitory effect or cytotoxicity with an NO production rate less than 50% or the cell viability more than 50% at a concentration of 50 μM) | –
